Results published in ChEMBL document CHEMBL3046302, “Antifungal constituents from the seeds of Allium fistulosum L” (J Agric Food Chem, 2002).
The source made the active and inactive calls. The rule behind the calls is not given here.

Test system: Phytophthora capsici
Experiment: Antifungal activity against Phytophthora capsici assessed as fungal growth inhibition at 0.3 to 0.5 mM after 0.5 to 4.5 days
Type: functional, organism-based

Structure (SMILES)	growth inhibition (GI)
CCCCCCC(O)C(O)/C=C/C(O)CCCCCCC(=O)OCC(O)CO (configuration not stated)	Active
CCCCCCC(O)C(O)/C=C/C(O)CCCCCCC(=O)O (configuration not stated)	Active
